{"source": "patent US12263139B2", "about": "“Use of cannabidiol in the treatment of tuberous sclerosis complex” (Jazz Pharmaceuticals Research UK Limited, priority 2017, dated 2025)", "key": {"[1]": {"test_system": "pS6 positive cells", "assay": "Number of pS6 positive cells in zebrafish model of TSC", "format": "in vivo", "details": "for effect on average number of pS6 positive cells: Danieau's incubated", "text": "A zebrafish model of TSC with a tsc2 gene deletion was used. This model has been previously published and validated (Kim et al. 2011). By mating the gene deletion animals with wild-type tsc2+/+ animals, heterozygote (tsc2+/−) zebrafish were also obtained and tested in this example.\nFor both pS6 and TUNEL staining, non-consecutive sections were imaged using a Zeiss AxioImager microscope. Exposure time was kept constant during image acquisition and determined by the observation of a slide where primary antibody or enzyme solution was omitted. Pictures were taken with a 20× objective, using the AxioVision software, and coloured using Fiji ImageJ. All counting and measuring of cells was done in the original black and white pictures.\nStatistical analysis was performed in SPSS (IBM SPSS Statistics 22), except for the chi-square test, which was done using GraphPad Prism 5. Normality and sphericity were tested using the Kolmogorov-Smirnov and Mauchly's tests, respectively. Repeated measures two-way ANOVA tests were used to analyse the locomotor assay data and cell number, while a three-way ANOVA test was used to analyse cell size. Touch response (TR) between genotypes and treatments was analysed by chi-square test. Tests were followed by Tukey or Bonferroni post-hoc tests.\nTo explore mTOR pathway activation in the different genotypes and treatments, immunohistochemistry was performed using a pS6 (Ser235/236) antibody.\nTo better understand the apparent differences between groups, pS6 positive cells were counted for each genotype and treatment. A significant main effect of genotype was found, with tsc2−/− zebrafish sections showing more pS6 positive cells in the brain than tsc2+/+ and tsc2+/−(+173.3%) (FIG. 4A)."}, "[2]": {"test_system": "AML 621-101 cells", "assay": "Matrigel cell invasion assay in AML 621-101 cells", "format": "cell-based", "details": "CBD at both 5 μM and 10 μM", "protocol": "(§1) (i) Angiomyolipomas (AML) cells derived from a Tuberous Sclerosis Complex patient (621-101 cell-line), with a known loss of function of TSC2. […] Zeocin™ was purchased from LifeTechnologies (cat no: R25001) and was used to originally generate the stable cell line (by Prof. Lisa Henske) over two weeks of Zeocin™ selection and then for continued maintenance of the cells in tissue culture (at 100 μg/ml).\nTsc2−/− and Tsc2+/+ cell lines were cultured and maintained in DMEM supplemented with 10% (v/v) FBS and 1% (v/v) penicillin-streptomycin in a humidified incubator (5% CO2 at 37° C.). […]\nTranswell permeable supports with 6.5 mm diameter inserts, 8.0 μm pore size, and a polycarbonate membrane were used to perform migration assays. […] Cells were counted using a haemocytometer. […] The percentage of adherent cells was then determined by fixing the cells with methanol and acetone (1:1) for 20 minutes at 20° C. […] Crystal Violet stained cells were eluted with 1% (w/v) SDS and the absorbance was read at 550 nm on a Genova MK3 Lifescience.\nFor invasion assays, a similar protocol was used; however, the top chamber of the Transwell was filled with […] of BD Matrigel Basement Membrane Matrix (1 mg/mL). […] The number of invaded cells was determined by fixation staining and elution of crystal violet with 1% (w/v) SDS, as before."}, "[3]": {"test_system": "AML 621-101 cells", "assay": "Tumour spheroid growth (soft agar) assay in AML 621-101 cells", "format": "cell-based", "details": "10 μM CBD", "protocol": "as §1\nThe stock concentration of CBD was made to 20 mM in dimethyl sulfoxide (DMSO). CBD was added to culture media to final concentrations of either 5 μM or 10 μM, as indicated). The final concentration of the DMSO in the cell culture medium was at a maximum level of 0.05% (v/v).\nTwo-layered soft agar assays were carried out in 6-well plates. All cell lines were plated in complete DMEM media in 0.35% (v/v) agar at (3*10^5) over a 0.6% (v/v) agar layer. The agar was then overlaid with complete DMEM media and spheroids were grown for 14 days at 37° C. in 5% CO2. Media were changed twice a week and new drug was added to media. Pictures were taken using an inverted AMG EVOS microscope equipped with an Olympus camera. Volume of tumour spheroids was measured using ImageJ software."}}}
{"compound": "C=C(C)[C@@H]1CCC(C)=C[C@H]1c1c(O)cc(CCCCC)cc1O", "note": "[CBD, Cannabidiol]", "values": [{"measurement": "change in average number of pS6 positive cells", "setting": "[1]; main effect of treatment, compared to DMSO group, FIG. 4B", "result": "−77.1", "unit": "%"}, {"measurement": "change in average number of pS6 positive cells", "setting": "[1]; main effect of treatment, compared to Danieau's group, FIG. 4B", "result": "−63.2", "unit": "%"}, {"measurement": "effect on average number of pS6 positive cells", "setting": "[1]; tsc2+/+ zebrafish", "result": "no significant effect"}, {"measurement": "effect on average number of pS6 positive cells", "setting": "[1]; tsc2+/− zebrafish", "result": "no significant effect"}, {"measurement": "change in average number of pS6 positive cells", "setting": "[1]; tsc2−/− zebrafish, for the DMSO group, FIG. 4C", "result": "−58.9", "unit": "%"}, {"measurement": "change in average number of pS6 positive cells", "setting": "[1]; tsc2−/− zebrafish, for the Danieau's group, FIG. 4C", "result": "−55.4", "unit": "%"}, {"measurement": "cell invasion", "setting": "[2]", "result": "significantly block"}, {"measurement": "tumour spheroid formation", "setting": "[3]", "result": "sufficient to block tumour spheroid formation"}]}
